The source made the active and inactive calls. Unless noted, the calls are words filed in the database; no cut-off is given here.
What was measured:
[1] = molecular target: Cyclin-dependent kinase 5/CDK5 activator 1 (Homo sapiens, UniProt Q00535); experiment: CDK5/p35 kinase inhibitors, dose response, biochemical, cherry-picked samples, set 2 (AID 504545)
[2] = molecular target: Dual specificity protein phosphatase 3 (Homo sapiens, UniProt P51452); experiment: VHR1 inhibitor Ki determination, SAR follow-up, biochemical, colorimetric (AID 2004)
[3] = HEp-2 cell cytotoxicity, dose response, cytotoxicity control for RSV inhibitor project, HTS (AID 2410); format: functional; settings: human respiratory syncytial virus
[4] = inhibitors of intracellular T. cruzi replication, confirmation, NIH3T3 host cells, beta-gal luminescence (AID 2044); format: functional, cell-based;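 further: intracellular parasites grown in NIH/3T3 mouse fibroblasts as host cells; luminescent beta-galactosidase reporter signal from transgenic T. cruzi replicating inside host cells; inhibitors lower the luminescence signal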
NADPH oxidase 1 = NADPH oxidase 1 (Homo sapiens, UniProt Q9Y5S8); experiment: Luminescence-based cell-based dose response assay to identify inhibitors of NADPH oxidase 1 (NOX1).; format: functional
[5] = cytotoxicity toward NIH3T3 fibroblasts, dose response, counter-screen, cell-based, ATP luminescence, mouse fibroblasts (AID 2010); format: functional;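 further: cells exposed to compound for about 90 hours before reading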
[6] = molecular target: Sodium-dependent noradrenaline transporter (Homo sapiens, UniProt P23975); experiment: Late-stage radioligand binding dose response assay to identify inhibitors of NADPH oxidase 1 (NOX1): PDSP screen Ki. [Related pubchem assays (depositor defined):AID1792, AID1796, AID1823, AID2532, AID2538, AID2539, AID2541, AID2545, AID2556, AID2664, AID2752, AID2773, AID434992, AID434993, AID434997, AID435002, AID435009, AID435013, AID463255 …
[7] = molecular target: Alpha-2A adrenergic receptor (Homo sapiens, UniProt P08913); experiment: as above
[8] = molecular target: Glutamate receptor ionotropic, kainate 5 (Rattus norvegicus, UniProt Q63273); experiment: as above
[9] = molecular target: Sodium-dependent serotonin transporter (Homo sapiens, UniProt P31645); experiment: as above
[10] = molecular target: Muscarinic acetylcholine receptor M4 (Homo sapiens, UniProt P08173); experiment: as above
[11] = molecular target: 5-hydroxytryptamine receptor 2B (Homo sapiens, UniProt P41595); experiment: as above
[12] = molecular target: Alpha-2C adrenergic receptor (Homo sapiens, UniProt P18825); experiment: as above
[13] = molecular target: Alpha-2B adrenergic receptor (Homo sapiens, UniProt P18089); experiment: as above
D(3) dopamine receptor = D(3) dopamine receptor (Homo sapiens, UniProt P35462); experiment: as above
[14] = molecular target: Muscarinic acetylcholine receptor M3 (Homo sapiens, UniProt P20309); experiment: as above
[15] = molecular target: 5-hydroxytryptamine receptor 4 (Homo sapiens, UniProt Q13639); experiment: as above
Oxytocin receptor = Oxytocin receptor (Homo sapiens, UniProt P30559); experiment: as above
[16] = molecular target: Muscarinic acetylcholine receptor M5 (Homo sapiens, UniProt P08912); experiment: as above
[17] = molecular target: Sigma non-opioid intracellular receptor 1 (Homo sapiens, UniProt Q99720); experiment: as above
[18] = molecular target: 5-hydroxytryptamine receptor 2C (Homo sapiens, UniProt P28335); experiment: as above
[19] = molecular target: T1, Ubiquitin-conjugating enzyme E2 N (Homo sapiens, UniProt P61088); format: functional;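 further: Dose-response confirmation in a TR-FRET assay detecting UBC13-driven polyubiquitin chain formation, inhibition measured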
T1 sequence (P61088 whole entry): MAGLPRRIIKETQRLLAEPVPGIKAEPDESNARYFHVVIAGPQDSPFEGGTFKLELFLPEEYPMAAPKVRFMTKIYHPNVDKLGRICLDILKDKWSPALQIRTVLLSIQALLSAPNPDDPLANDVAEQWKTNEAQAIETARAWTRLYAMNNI

[20] = Cytotoxicity screening for potential Inhibitors of Bacterial Capsule Biogenesis. [Related pubchem assays (depositor defined):AID488970]; format: functional
INS1 = experiment: beta cell apoptosis inhibitors, cytokine rescue, dose response, luminescence, retest (AID 449756); format: functional, cell-based; settings: Rattus norvegicus;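 further: cell death triggered by IL-1 beta plus TNF-alpha plus IFN-gamma mixture; protective hits raise ATP signal compared with cytokine alone wells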
Bcl-2-like protein 10 = Bcl-2-like protein 10 (Homo sapiens, UniProt Q9HD36); experiment: displacers of TR3 peptide from Bcl-B, primary screen, selectivity assay for Bfl-1 inhibitor project, biochemical, fluorescence polarization, FITC-TR3 peptide (AID 748);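 further: fluorescence polarization from a fluorescein-labelled TR3 peptide binding purified Bcl-B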
[21] = molecular target: DNA dC->dU-editing enzyme APOBEC-3A (Homo sapiens, UniProt P31941); experiment: Dose Response confirmation of small molecule APOBEC3A DNA Deaminase Inhibitors via a fluorescence-based single-stranded DNA deaminase assay. [Related pubchem assays (depositor defined):AID493011, AID493024]; format: functional
[22] = molecular target: DNA dC->dU-editing enzyme APOBEC-3G (Homo sapiens, UniProt Q9HC16); format: functional;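 further: Dose-response counterscreen measuring inhibition of APOBEC3G DNA deaminase activity, run while confirming APOBEC3A inhibitors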
[23] = molecular target: Cystic fibrosis transmembrane conductance regulator/Golgi-associated PDZ and coiled-coil motif-containing protein (Homo sapiens, UniProt P13569+Q9HD26); experiment: CAL PDZ peptide-binding inhibitors, dose response, biochemical, fluorescence polarization, Cerulean-tagged CAL PDZ, cherry-picks (AID 504773)
[24] = inhibitors of firefly luciferase expression or activity, dose response, H4 neuroglioma cells, luminescence (AID 1990); format: functional, cell-based
BJ [25] = experiment: cytotoxicity toward BJ-TERT fibroblasts, dose response, cell-based, RAS-independent, luminescence (AID 1933); format: functional; settings: Homo sapiens
[26] = Luminescence Cell-Based Dose Response HTS to Identify Inhibitors of 5'UTR Stem-Loop Driven Prion Protein mRNA Translation in H4 Neuroglioblastoma Cells. [Related pubchem assays: 1827 (Project Summary), 1813 (Primary HTS)]; format: functional
[27] = inhibitors of SNCA 5'UTR-driven reporter translation, confirmation, H4 neuroglioma cells, luminescence (AID 1988); format: functional, cell-based
BJ [28] = experiment: cells; format: functional, cell-based; settings: Homo sapiens
J774.A1 = experiment: Confirmation of image-based Screening Assay for Inhibitors of Phagocytosis. [Related pubchem assays (depositor defined):AID1029, AID1643]; format: functional, cell-based; settings: Mus musculus
BJ [29] = experiment: cytotoxicity toward BJ-TERT-LT-ST fibroblasts, dose response, cell-based, RAS-independent, luminescence (AID 1935); format: functional; settings: Homo sapiens;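 further: BJ fibroblasts immortalized with TERT plus LT and ST oncogenes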
[30] = cytotoxicity toward DRD oncogenic fibroblasts, dose response, cell-based, non-viral oncogenic, luminescence (AID 1934); format: functional; settings: Homo sapiens
[31] = cytotoxicity in HEK-293T cells, dose response, cytotoxicity control for TCR NF-kB inhibitor project, luminescence, T-cell screen hits (AID 489026); format: functional, cell-based;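 further: cells exposed to compound about 14 hours before the viability readout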
[32] = molecular target: Intestinal-type alkaline phosphatase (Homo sapiens, UniProt P09923); experiment: Dose Response confirmation of uHTS hits from a small molecule inhibitors of human intestinal alkaline phosphatase via a luminescent assay. [Related pubchem assays (depositor defined):AID2544, AID2574]; format: functional

Chain of Alpha-2A adrenergic receptor (P08913 whole entry): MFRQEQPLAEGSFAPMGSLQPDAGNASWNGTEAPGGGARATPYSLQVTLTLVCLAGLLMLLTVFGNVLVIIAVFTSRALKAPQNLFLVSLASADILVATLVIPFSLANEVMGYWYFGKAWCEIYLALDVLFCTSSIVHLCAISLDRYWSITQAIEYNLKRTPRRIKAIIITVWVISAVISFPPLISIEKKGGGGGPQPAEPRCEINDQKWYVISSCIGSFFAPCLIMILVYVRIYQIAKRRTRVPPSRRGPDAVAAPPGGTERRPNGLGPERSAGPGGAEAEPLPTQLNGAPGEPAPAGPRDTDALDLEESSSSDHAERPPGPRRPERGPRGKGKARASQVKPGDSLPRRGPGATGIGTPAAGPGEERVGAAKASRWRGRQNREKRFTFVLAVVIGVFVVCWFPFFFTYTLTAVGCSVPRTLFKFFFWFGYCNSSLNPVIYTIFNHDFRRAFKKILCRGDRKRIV
Chain of DNA dC->dU-editing enzyme APOBEC-3A (P31941 whole entry): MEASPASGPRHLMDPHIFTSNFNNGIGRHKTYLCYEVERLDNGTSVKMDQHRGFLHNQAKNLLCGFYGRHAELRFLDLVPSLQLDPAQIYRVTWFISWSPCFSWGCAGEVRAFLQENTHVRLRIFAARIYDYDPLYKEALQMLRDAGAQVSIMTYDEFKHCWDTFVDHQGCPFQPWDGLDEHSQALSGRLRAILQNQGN
Chain of 5-hydroxytryptamine receptor 2B (P41595 whole entry): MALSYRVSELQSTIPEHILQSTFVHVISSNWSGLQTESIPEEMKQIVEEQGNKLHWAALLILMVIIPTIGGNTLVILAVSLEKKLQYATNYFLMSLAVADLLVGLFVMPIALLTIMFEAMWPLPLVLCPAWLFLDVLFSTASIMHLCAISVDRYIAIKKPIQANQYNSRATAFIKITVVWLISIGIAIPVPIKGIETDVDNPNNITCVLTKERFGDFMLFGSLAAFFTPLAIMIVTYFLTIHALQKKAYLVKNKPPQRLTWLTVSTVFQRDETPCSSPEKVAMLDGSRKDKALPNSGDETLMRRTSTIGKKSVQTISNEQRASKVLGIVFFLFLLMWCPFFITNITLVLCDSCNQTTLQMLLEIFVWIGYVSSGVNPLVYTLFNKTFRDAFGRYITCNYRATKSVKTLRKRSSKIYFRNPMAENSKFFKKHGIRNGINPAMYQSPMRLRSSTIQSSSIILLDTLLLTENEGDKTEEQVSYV
Chain of Bcl-2-like protein 10 (Q9HD36 whole entry): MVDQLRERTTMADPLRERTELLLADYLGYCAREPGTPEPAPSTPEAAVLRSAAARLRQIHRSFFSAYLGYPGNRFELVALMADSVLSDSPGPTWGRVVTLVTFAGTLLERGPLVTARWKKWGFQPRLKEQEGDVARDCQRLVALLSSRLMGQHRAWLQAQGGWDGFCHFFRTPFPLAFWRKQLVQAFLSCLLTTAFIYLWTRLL
Chain of NADPH oxidase 1 (Q9Y5S8 whole entry): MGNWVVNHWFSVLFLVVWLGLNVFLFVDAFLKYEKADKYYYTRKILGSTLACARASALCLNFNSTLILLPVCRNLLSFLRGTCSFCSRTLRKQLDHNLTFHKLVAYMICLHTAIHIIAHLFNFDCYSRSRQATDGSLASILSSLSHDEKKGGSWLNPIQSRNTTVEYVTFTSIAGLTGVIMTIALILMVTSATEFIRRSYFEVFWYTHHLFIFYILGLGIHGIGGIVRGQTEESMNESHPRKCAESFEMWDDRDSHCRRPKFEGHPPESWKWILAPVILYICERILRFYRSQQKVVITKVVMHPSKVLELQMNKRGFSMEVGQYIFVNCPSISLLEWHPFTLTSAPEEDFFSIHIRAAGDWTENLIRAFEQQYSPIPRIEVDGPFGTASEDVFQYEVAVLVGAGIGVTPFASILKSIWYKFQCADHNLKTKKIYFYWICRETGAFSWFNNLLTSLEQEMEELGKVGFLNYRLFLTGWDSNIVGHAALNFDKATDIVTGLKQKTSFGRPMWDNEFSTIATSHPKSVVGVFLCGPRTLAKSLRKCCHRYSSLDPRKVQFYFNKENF
Chain of Sigma non-opioid intracellular receptor 1 (Q99720 whole entry): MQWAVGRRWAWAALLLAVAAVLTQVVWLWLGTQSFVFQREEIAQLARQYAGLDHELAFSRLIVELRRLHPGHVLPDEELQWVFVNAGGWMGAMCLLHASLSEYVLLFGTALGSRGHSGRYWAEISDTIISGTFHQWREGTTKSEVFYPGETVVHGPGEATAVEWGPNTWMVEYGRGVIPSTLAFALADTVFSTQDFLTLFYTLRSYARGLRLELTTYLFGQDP
Chain of Oxytocin receptor (P30559 whole entry): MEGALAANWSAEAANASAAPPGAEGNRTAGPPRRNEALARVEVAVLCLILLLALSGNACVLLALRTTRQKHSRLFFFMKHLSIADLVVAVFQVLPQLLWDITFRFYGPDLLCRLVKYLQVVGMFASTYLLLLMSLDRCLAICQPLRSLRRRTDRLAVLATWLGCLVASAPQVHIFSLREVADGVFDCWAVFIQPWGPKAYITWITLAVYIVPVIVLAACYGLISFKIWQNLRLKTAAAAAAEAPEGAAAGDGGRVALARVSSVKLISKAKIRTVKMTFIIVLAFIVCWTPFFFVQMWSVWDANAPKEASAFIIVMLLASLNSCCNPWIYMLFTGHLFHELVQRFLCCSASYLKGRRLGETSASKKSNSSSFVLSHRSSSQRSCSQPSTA
Chain of 5-hydroxytryptamine receptor 4 (Q13639 whole entry): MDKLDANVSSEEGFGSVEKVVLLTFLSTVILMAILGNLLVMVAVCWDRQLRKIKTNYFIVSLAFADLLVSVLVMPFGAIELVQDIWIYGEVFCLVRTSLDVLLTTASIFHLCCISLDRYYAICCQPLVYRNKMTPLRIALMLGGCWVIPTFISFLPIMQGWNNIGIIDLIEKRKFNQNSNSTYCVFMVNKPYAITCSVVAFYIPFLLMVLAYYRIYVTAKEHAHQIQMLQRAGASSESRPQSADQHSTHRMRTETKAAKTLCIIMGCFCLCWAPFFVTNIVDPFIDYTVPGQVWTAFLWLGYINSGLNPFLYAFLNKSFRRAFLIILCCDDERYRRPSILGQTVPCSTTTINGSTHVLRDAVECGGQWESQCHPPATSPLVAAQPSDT
Chain of DNA dC->dU-editing enzyme APOBEC-3G (Q9HC16 whole entry): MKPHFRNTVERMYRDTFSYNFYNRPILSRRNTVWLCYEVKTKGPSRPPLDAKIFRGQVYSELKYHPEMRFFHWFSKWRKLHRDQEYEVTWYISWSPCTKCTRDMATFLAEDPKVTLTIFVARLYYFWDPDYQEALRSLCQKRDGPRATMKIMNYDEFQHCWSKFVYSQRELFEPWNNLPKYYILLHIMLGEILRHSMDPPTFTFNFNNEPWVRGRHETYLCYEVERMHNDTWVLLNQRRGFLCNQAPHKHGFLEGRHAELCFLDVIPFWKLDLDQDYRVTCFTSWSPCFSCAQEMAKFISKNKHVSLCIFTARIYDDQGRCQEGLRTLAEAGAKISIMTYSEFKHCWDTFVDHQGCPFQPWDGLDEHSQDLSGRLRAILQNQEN
Chain of Glutamate receptor ionotropic, kainate 5 (Q63273 whole entry): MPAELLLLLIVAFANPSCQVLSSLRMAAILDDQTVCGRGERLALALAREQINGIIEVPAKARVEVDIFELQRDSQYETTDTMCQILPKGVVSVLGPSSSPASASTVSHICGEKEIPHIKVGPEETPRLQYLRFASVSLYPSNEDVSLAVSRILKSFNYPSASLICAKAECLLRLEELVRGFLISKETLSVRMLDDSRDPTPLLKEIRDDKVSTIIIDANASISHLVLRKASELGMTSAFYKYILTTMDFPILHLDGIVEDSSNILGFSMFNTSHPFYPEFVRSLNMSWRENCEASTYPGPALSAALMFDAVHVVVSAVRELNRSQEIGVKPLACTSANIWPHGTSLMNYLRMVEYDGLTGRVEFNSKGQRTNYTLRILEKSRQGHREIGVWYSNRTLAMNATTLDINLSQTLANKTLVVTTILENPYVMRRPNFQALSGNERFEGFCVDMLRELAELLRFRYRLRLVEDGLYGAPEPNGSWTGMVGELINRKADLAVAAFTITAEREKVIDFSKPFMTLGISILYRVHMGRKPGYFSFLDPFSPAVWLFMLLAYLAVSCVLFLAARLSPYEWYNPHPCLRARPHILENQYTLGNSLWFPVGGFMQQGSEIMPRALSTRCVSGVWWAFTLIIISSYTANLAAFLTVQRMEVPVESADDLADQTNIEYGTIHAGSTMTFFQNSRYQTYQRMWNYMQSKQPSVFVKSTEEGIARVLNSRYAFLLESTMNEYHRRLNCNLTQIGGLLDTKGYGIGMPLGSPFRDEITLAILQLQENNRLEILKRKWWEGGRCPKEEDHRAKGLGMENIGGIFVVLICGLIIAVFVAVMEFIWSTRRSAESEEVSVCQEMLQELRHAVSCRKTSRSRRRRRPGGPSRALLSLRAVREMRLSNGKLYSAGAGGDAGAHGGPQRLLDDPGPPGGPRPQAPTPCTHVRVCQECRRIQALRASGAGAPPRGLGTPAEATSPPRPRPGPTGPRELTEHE
Chain of Muscarinic acetylcholine receptor M3 (P20309 whole entry): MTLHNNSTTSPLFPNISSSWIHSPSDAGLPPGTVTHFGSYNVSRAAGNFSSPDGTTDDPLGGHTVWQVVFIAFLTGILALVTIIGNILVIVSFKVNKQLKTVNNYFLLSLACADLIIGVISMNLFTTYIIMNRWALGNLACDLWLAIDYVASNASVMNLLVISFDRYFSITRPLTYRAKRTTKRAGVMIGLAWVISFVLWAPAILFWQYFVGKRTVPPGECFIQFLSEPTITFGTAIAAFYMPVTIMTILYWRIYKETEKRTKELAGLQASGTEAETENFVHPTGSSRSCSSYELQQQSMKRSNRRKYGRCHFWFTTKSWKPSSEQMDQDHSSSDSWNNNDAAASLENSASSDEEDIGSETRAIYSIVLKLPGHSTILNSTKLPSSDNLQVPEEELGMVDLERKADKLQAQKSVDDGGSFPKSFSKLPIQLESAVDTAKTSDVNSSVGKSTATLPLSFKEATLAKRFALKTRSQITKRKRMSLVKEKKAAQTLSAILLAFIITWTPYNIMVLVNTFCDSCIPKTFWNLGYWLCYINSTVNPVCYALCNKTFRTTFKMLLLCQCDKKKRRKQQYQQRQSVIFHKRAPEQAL

## CC(C)(C)C(=O)c1sc(Nc2ccccc2)nc1N
[1]
  AC50: 23.4 µM (active)

## CCC(CO)N/C=C1\C(=O)N(c2c(Cl)cccc2Cl)c2ccccc21 (stereo not given)
[2]
  Ki: 24.2 µM (inactive)

## CN1c2ccccc2Sc2cc(N)ccc21
[3]
  CC50: 27.1 µM (active)
[4]
  EC50: 1.27 µM (active)
NADPH oxidase 1
  IC50: 0.044 µM (active)
[5]
  EC50: > 60 µM (not active)
[6]
  Ki: 3.94 µM (active)
[7]
  Ki: 6.92 µM (active)
[8]
  Ki: > 10 µM (inactive)
[9]
  Ki: 10 µM (active)
[10]
  Ki: > 10 µM (inactive)
[11]
  Ki: 0.556 µM (active)
[12]
  Ki: 5.76 µM (active)
[13]
  Ki: 2.72 µM (active)
D(3) dopamine receptor
  Ki: 9.06 µM (active)
[14]
  Ki: 10 µM (inactive)
[15]
  Ki: > 10 µM (inactive)
Oxytocin receptor
  Ki: > 10 µM (inactive)
[16]
  Ki: > 10 µM (inactive)
[17]
  Ki: > 10 µM (inactive)
[18]
  Ki: 2.96 µM (active)

## N=C(N)N/N=C/c1ccc(OCc2ccccc2)cc1
[4]
  EC50: 0.92 µM (active)
[5]
  EC50: > 60 µM (not active)
[19]
  IC50: > 20 µM (inactive)
[20]
  CC50: 10.4 µM (active)
INS1
  AC50: 6.57 µM (active)

## CCC1=[N+](C)CCn2c(C)ccc21
Bcl-2-like protein 10
  IC50: > 100 µM (inactive)
[21]
  IC50: 1.51 µM (active)
[22]
  IC50: 1.32 µM (active)

## O=C1OC(c2ccccc2)(c2ccccc2)c2ccccc21
[23]
  AC50: 17.3 µM (active)

## CCOC(=O)Nc1nc(-c2ccccc2)c(C(=O)c2ccccc2)s1
[24]
  EC50: 1.41 µM (active)
BJ [25]
  EC50: 7.17 µM (inconclusive)
[26]
  EC50: 1.38 µM (active)
[27]
  EC50: 0.198 µM (active)
BJ [28]
  EC50: 17.1 µM (inconclusive)
J774.A1
  IC50: 0.215 µM (active)
BJ [29]
  EC50: 4.12 µM (inconclusive)
[30]
  EC50: 12.3 µM (inconclusive)
[31]
  IC50: 68.3 µM (inactive)

## Cc1[nH]n(-c2nc(-c3ccccc3F)cc(=O)[nH]2)c(=O)c1CCO
[32]
  IC50: 1.07 µM (active)

From ChEMBL document CHEMBL1201862, “PubChem BioAssay data set” (2004)
